“And” between values parts separate entries of the source, which are not always exact repeats. Equal values may be shown once.
Assays:
LRRK2 G2019S enzyme = LRRK2 G2019S enzyme (Homo sapiens (Human), UniProt Q5S007, G2019S); assay: LRRK2 G2019S TR-FRET biochemical assay (LRRKtide substrate); conditions: 134 μM ATP
Outline: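 Kinase and LRRKtide substrate were preincubated with compound 20 minutes at 23° C, then ATP was added and the reaction ran 60 minutes at 23° C. Detection used 2 nM antibody with 10 mM EDTA in TR-FRET dilution buffer, 60 minutes at 23° C, read by TR-FRET.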

[1] = Metabolic stability in human liver microsomes; type: in vitro ADME; conditions: 1 μM compound, 0.5 mg/mL protein, projected hepatic clearance, well-stirred model
Experimental: Metabolic stability of compounds was evaluated in human liver microsomes (from Corning or XenoTech, LLC) using a 96-well plate assay format. Compounds were incubated at 37° C. at 1 μM final concentration in the microsomal matrix (0.5 mg/mL total protein) in the presence or absence of NADPH cofactor. An NADPH regenerating system, comprised of NADP, MgCl2, isocitric acid, and isocitrate dehydrogenase, was used in the assay. Enzymatic reactions were conducted for 0, 5, 10, 20, 30, or 60 min before termination by addition of acetonitrile containing tolbutamide and labetalol internal standards (100 ng/mL). After shaking for 10 min, plates were subjected to centrifugation (4000 rpm at 4° C.) for 20 min and supernatants were mixed 1:3 with HPLC grade water. Samples were analyzed by LC-MS/MS using appropriate MRM transitions for each analyte and internal standard (IS). Analyte/IS peak area ratios were used to determine percent compound remaining at each time point. Intrinsic clearance (Clint; expressed as mL·min^−1·mg^−1) was calculated from the first order elimination constant (k, min^−1) of test article decay and the volume of the incubation. These values were scaled to intrinsic organ clearance (Clint) using human specific scaling factors (48.8 mg microsomal protein per g liver; 25.7 g liver per kg body weight). Organ Clint was subsequently converted to hepatic clearance (CLhep, mL·min-1·kg-1) using the well-stirred model of hepatic elimination, where Qh is human hepatic blood flow (20.7 mL·min-1·kg-1).
CLhep is the projected human clearance in the liver based on the above in vitro assay. A lower value is indicative of less compound being removed by the liver.

MDR1 (P-glycoprotein) = MDR1 (P-glycoprotein) (Homo sapiens (Human), UniProt P08183); assay: MDR1-MDCK permeability, bidirectional assay; type: in vitro ADME; conditions: dog, MDR1-MDCK cells, monolayer efflux ratio, pH 7.4, read-out: MDR1 ER
Experimental: The blood brain barrier (BBB) separates circulating blood from the extracellular fluid of the central nervous system (CNS). The passive membrane permeability (Papp) and MDR1 (P-glycoprotein) substrate efflux potential were determined using the MDR1-MDCK cell line as an in vitro model of the effective permeability of a compound through the BBB. A bidirectional assay was conducted in pre-plated MDR1-MDCK cells using a 12 or 96-well plate in the absence or presence of MDR1 inhibitor (GF120918 or Valspodar). Assays were run in duplicate in transport buffer (HBSS, pH 7.4) for 90 or 120 min (minutes) at 37° C., using a test article concentration of 1 μM. Monolayer integrity was confirmed using Lucifer yellow, and appropriate positive controls for passive permeability and MDR1 transport were included in each experiment. Following incubation, samples from donor and receiver compartments were removed and quenched with acetonitrile containing an appropriate internal standard (IS). Protein was precipitated by centrifugation for 10 min at 3220 g, and supernatants were diluted in ultra-pure water (if necessary) prior to analysis by LC-MS/MS using appropriate MRM transitions for analytes and IS. Papp (apparent permeability expressed in cm/sec [centimeter/second]) values were calculated according to the following equation:
[formula] where VR is the solution volume in the receiver chamber (apical or basolateral side), Area is the surface area for the insert membrane), Time is incubation time expressed in seconds, CR is the peak area ratio (analyte/IS) in the receiver chamber, CA is the average of the initial and final concentrations in the donor chamber, and Co is the initial peak area ratio in the donor chamber. Papp was determined in both the apical to basolateral (A→B) and basolateral to apical (B→A) directions.
Monolayer efflux ratios (ER) were derived using the following equation: […]

Chain of MDR1 (P-glycoprotein) (P08183 whole entry): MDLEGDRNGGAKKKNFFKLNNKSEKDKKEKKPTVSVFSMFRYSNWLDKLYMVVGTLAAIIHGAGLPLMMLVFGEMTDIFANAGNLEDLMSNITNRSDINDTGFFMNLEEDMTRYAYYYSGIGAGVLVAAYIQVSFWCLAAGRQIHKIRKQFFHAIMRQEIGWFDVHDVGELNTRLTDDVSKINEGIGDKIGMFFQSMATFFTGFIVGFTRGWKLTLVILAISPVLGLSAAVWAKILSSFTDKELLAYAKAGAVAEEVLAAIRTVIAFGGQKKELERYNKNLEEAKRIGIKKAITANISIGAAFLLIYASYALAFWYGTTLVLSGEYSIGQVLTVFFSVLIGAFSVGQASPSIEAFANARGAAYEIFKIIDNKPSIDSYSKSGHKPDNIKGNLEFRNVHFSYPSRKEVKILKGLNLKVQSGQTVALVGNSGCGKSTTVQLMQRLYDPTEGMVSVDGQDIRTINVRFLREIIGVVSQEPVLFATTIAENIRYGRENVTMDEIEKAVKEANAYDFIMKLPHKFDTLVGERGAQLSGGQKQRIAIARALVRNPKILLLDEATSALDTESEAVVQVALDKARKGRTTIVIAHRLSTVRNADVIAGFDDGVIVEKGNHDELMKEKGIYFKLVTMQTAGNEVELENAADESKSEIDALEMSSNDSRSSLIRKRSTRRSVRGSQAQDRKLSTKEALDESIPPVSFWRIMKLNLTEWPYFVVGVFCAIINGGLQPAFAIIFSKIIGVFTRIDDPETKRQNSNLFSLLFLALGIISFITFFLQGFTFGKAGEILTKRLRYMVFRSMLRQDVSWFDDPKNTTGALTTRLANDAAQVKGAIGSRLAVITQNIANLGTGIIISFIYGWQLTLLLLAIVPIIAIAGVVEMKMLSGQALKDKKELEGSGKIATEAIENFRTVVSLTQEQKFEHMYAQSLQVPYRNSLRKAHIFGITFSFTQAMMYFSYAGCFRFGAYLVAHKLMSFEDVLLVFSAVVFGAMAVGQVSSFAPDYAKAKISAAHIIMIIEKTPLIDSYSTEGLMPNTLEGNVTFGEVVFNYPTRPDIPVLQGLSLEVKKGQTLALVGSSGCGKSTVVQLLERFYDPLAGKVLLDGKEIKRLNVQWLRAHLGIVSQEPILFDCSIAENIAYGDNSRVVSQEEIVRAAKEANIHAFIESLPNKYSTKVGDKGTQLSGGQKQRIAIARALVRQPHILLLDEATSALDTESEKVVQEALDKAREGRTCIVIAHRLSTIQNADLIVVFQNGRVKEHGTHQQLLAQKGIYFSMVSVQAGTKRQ
Chain of LRRK2 G2019S enzyme (Q5S007 whole entry G2019S): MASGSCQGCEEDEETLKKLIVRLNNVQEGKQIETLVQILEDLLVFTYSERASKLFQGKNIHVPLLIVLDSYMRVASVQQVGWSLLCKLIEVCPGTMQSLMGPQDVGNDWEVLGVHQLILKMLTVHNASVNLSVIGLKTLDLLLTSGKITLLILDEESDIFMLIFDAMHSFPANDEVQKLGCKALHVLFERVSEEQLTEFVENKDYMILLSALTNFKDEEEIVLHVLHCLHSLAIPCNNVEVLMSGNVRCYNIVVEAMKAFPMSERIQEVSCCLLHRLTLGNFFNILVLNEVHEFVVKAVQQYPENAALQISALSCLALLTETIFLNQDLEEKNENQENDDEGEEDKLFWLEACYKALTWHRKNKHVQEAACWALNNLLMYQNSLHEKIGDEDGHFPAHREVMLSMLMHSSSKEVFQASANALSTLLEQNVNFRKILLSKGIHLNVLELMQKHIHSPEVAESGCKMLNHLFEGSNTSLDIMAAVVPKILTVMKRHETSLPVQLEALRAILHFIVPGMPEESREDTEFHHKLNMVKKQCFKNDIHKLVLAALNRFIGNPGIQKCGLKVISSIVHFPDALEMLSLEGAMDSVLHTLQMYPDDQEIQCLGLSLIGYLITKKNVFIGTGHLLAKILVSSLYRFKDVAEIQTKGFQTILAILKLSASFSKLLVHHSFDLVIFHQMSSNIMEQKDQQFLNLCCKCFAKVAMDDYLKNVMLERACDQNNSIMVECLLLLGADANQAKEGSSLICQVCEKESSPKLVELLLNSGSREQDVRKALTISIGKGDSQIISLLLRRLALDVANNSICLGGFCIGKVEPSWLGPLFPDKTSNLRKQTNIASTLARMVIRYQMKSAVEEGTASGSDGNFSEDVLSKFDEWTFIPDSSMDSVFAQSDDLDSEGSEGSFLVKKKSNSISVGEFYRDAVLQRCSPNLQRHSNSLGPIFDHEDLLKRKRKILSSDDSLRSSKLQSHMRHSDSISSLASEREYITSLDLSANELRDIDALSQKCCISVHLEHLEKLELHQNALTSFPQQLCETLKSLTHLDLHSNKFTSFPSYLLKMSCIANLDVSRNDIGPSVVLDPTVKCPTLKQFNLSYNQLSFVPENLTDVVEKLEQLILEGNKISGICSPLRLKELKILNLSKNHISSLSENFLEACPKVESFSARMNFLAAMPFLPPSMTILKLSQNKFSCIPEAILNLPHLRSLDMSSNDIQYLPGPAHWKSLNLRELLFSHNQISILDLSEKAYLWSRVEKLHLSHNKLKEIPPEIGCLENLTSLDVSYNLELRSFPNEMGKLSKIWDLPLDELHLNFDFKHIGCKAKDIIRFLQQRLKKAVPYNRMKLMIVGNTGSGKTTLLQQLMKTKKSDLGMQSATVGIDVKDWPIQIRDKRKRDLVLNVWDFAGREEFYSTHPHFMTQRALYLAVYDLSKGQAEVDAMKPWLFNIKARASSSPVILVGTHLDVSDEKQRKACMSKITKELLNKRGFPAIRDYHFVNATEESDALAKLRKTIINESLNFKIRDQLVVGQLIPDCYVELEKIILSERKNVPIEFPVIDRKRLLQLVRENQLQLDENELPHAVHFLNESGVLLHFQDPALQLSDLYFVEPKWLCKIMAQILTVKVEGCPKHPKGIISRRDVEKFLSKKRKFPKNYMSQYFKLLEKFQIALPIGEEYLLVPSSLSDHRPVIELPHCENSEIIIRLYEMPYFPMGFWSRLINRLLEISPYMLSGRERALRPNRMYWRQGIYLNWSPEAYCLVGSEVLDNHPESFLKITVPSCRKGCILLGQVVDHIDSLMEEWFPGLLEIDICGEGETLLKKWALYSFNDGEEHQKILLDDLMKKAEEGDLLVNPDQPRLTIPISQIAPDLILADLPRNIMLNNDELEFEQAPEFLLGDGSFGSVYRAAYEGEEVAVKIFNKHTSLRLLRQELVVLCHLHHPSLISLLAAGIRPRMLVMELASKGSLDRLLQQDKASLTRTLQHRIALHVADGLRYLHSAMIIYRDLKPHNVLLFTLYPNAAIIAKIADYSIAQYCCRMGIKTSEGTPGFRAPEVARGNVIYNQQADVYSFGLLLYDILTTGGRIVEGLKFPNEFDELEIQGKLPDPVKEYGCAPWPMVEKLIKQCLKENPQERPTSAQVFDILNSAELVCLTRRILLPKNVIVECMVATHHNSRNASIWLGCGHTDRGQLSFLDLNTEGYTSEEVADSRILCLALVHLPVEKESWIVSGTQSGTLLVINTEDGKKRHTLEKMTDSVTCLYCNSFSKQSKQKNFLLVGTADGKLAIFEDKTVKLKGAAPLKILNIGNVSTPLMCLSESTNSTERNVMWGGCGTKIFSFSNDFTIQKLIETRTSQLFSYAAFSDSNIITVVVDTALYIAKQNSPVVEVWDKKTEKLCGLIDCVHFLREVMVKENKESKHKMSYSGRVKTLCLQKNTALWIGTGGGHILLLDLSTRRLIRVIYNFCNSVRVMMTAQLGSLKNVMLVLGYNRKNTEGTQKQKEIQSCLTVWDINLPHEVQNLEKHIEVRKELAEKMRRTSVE

Row | Compound | IC50 (LRRK2 G2019S enzyme) | Human liver microsomes CLhep [1] [mL/min/kg] | efflux ratio at 1 μM (MDR1 (P-glycoprotein))
1 | CNc1nc(Nc2cn(C3(C)CCOC3=O)nc2C2CC2)ncc1C(F)(F)F (single isomer, unassigned) [Compound 122] | < 30 nM and 0.72 nM | 9.856 | 
2 | CNc1nc(Nc2cc(C3(C)CCOC3=O)nn2C2CC2)ncc1C(F)(F)F (single isomer, unassigned) [Compound 155] | < 30 nM and 1.95 nM | 5.519 | 
3 | [2H]C([2H])([2H])n1nc(C(C)(C)n2nccn2)cc1Nc1ncc(C(F)(F)F)c(NC2CC2)n1 [Compound 68] | < 30 nM and 2.23 nM | 3.18 | 4.01
4 | CNc1nc(Nc2cn(C(C)(C)c3ncn(C)n3)nc2C)ncc1C(F)(F)F [Compound 218] | < 30 nM and 5.91 nM | 0 | 86
5 | CCNc1nc(Nc2cc(C(C)(C)C#N)nn2C2CC2)ncc1C(F)(F)F [Compound 131] | < 30 nM and 4.98 nM | 2.237 | 
6 | CCNc1nc(Nc2cnn(C3CC(C#N)C3)c2C)ncc1C(F)(F)F (stereo not shown) [Compound 27] |  | 7.81 | 0.88
7 | CCNc1nc(Nc2cn(C3(C)CCOC3=O)nc2C2CC2)ncc1Br (single isomer, unassigned) [Compound 114] | < 30 nM and 1.05 nM | 16.508 | 
8 | CCNc1nc(Nc2cc(C3(C)CCOC3=O)nn2C2CC2)ncc1C(F)(F)F (single isomer, unassigned) [Compound 143] | < 30 nM and 1.21 nM | 7.81 | 
9 | CCNc1nc(Nc2cc(C3(C)CCOC3=O)nn2C2CC2)ncc1Br (single isomer, unassigned) [Compound 150] | < 30 nM and 1.22 nM | 11.077 | 
10 | CCNc1nc(Nc2cn(C3(C)CCOC3=O)nc2C2CC2)ncc1C(F)(F)F (single isomer, unassigned) [Compound 104] | < 30 nM and 0.96 nM | 11.59 | 
11 | CCNc1nc(Nc2cn(C(C)(C)C#N)nc2C2CC2)ncc1C(F)(F)F [Compound 118] | < 30 nM and 1.55 nM | 7.81 | 0.83
12 | [2H]C([2H])([2H])n1nc(C(C)(C)n2nccn2)cc1Nc1ncc(C(F)(F)F)c(NCC)n1 [Compound 34, N4-Ethyl-N2-[1-(^2H3)methyl-3-[2-(2H-1,2,3-triazol-2-yl)propan-2-yl]-1H-pyrazol-5-yl]-5-(trifluoromethyl)pyrimidine-2,4-diamine] | < 30 nM and 2.31 nM | 0.75 | 4.8
13 | CCNc1nc(Nc2cc(C3(C)CCn4ncnc43)nn2C2CC2)ncc1C(F)(F)F (single isomer, unassigned) [Compound 172] | < 30 nM and 1.47 nM | 19.9 | 42
14 | CCNc1nc(Nc2cc(C(C)(C)C#N)nn2C2CC2)ncc1Br [Compound 141] | < 30 nM and 3.94 nM | 13.508 | 
15 | CCNc1nc(Nc2cc(C(C)(C)n3nccn3)nn2C2CC2)ncc1C(F)(F)F [Compound 78, N2-[2-cyclopropyl-5-[1-methyl-1-(triazol-2-yl)ethyl]pyrazol-3-yl]-N4-ethyl-5-(trifluoromethyl)pyrimidine-2,4-diamine] | < 30 nM and 3.69 nM | 4.81 | 2
16 | CCNc1nc(Nc2cnn(C3CN(CC)CCC3(F)F)c2Cl)ncc1C(F)(F)F (single isomer, unassigned) [Compound 205] | < 30 nM |  | 
17 | COc1nc(Nc2cnn(C3CCC3)c2C#N)ncc1Br [Compound 37] | < 30 nM |  | 
18 | Cc1nn(C(C)(C)C#N)cc1Nc1ncc(Br)c(NC2CC2)n1 [Compound 66] | < 30 nM |  | 
19 | [2H]C([2H])([2H])n1nc(C2(C)CCOC2=O)cc1Nc1ncc(C(F)(F)F)c(NC)n1 (stereo not shown) [Compound 175] | < 30 nM |  | 
20 | [2H]C([2H])([2H])n1nc(Nc2ncc(C(F)(F)F)c(NCC)n2)cc1C(C)(C)c1ncco1 [Compound 83] | < 30 nM |  | 

Row | Compound | IC50 (LRRK2 G2019S enzyme) | Human liver microsomes CLhep [1] [mL/min/kg] | efflux ratio at 1 μM (MDR1 (P-glycoprotein))
21 | [2H]C([2H])([2H])n1nc(C2(C)CCOC2=O)cc1Nc1ncc(C(F)(F)F)c(NCC)n1 (stereo not shown) [Compound 173] | < 30 nM |  | 
22 | Cc1c(Nc2ncc(C(F)(F)F)c(NC3CC3)n2)cnn1[C@H]1C[C@H](C#N)C1 [Compound 21] | < 30 nM |  | 
23 | CCNc1nc(Nc2ccnn2[C@H]2C[C@H](O)C2)ncc1C(F)(F)F [Compound 180] | 30 to 60 nM |  | 
24 | CCNc1nc(Nc2cn(C3C[C@H]3C#N)nc2Cl)ncc1C(F)(F)F (single isomer, unassigned) [Compound 207] | < 30 nM |  | 
25 | CNc1nc(Nc2cn(C3(C)CCCC3=O)nc2C)ncc1C(F)(F)F (stereo not shown) [Compound 195] | < 30 nM |  | 
26 | CCN1CCC(F)(F)C(n2ncc(Nc3ncc(C(F)(F)F)c(NC)n3)c2Cl)C1 (single isomer, unassigned) [Compound 202] | < 30 nM |  | 
27 | CNc1nc(Nc2cn(C3C[C@@H]3C#N)nc2C2CC2)ncc1C(F)(F)F (single isomer, unassigned) [Compound 208] | < 30 nM |  | 
28 | CCNc1nc(Nc2cn([C@H]3C[C@H](C#N)C3)nc2C)ncc1C(F)(F)F [Compound 35A] | < 30 nM |  | 
29 | CCN1CCC(F)(F)C(n2ncc(Nc3ncc(C(F)(F)F)c(NC)n3)c2Cl)C1 (single isomer, unassigned) [Compound 203] | < 30 nM |  | 
30 | [2H]C([2H])([2H])N1CCC(n2cc(Nc3ncc(C(F)(F)F)c(NCC)n3)c(C)n2)(C([2H])([2H])[2H])C1=O (stereo not shown) [Compound 22] | < 30 nM |  | 
31 | CCNc1nc(Nc2cc(C(C)n3nccn3)nn2C2CC2)ncc1Br (stereo not shown) [Compound 146] | < 30 nM |  | 
32 | CCNc1nc(Nc2cnn(C3CN(CC)CCC3(F)F)c2Cl)ncc1C(F)(F)F (single isomer, unassigned) [Compound 204] | < 30 nM |  | 
33 | CCNc1nc(Nc2cnn3c2CC(n2ccnn2)C3)ncc1C(F)(F)F (stereo not shown) [Compound 61] | < 30 nM |  | 
34 | CCNc1nc(Nc2cn(C3(C)CCCC3=O)nc2C)ncc1C(F)(F)F (stereo not shown) [Compound 194, 2-[4-[[4-(ethylamino)-5-(trifluoromethyl)pyrimidin-2-yl]amino]-3-methyl-pyrazol-1-yl]-2-methyl-cyclopentanone] | < 30 nM |  | 
35 | [2H]C([2H])([2H])n1nc(C2(C)CCOC2=O)cc1Nc1ncc(C(F)(F)F)c(NC)n1 (stereo not shown) [Compound 176] | < 30 nM |  | 
36 | CNc1nc(Nc2cnn(C3C[C@@H]4C[C@@H]4C3)c2C)ncc1C(F)(F)F (stereo partly shown) [Compound 4] | < 30 nM |  | 
37 | CCNc1nc(Nc2cn(C(C)(C)C#N)nc2C2CC2)ncc1Br [Compound 93] | < 30 nM and 1.87 nM | 17.663 | 
38 | CCNc1nc(Nc2cn(C3CS(=O)(=O)C3)nc2C2CC2)ncc1Br [Compound 96] | < 30 nM |  | 
39 | CCNc1nc(Nc2cc(C3(C)COC3)nn2C2CC2)ncc1Br [Compound 148] | < 30 nM |  | 
